Data taken from patent publication US9302999B2, “Substituted triazoles as herbicides” (E. I. DU PONT DE NEMOURS AND COMPANY, priority 2012, dated 2016).

Legend:
Assay type in all cases: in vivo
[1] = system: barnyardgrass (Echinochloa crus-galli); assay: Test C flooded paddy test: barnyardgrass; conditions: scale 0 to 100 (0 no effect, 100 complete control)
How it was run: (§1)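 Plants at 2-leaf stage in pots flooded 3 cm above soil; compounds applied directly into the paddy water, depth maintained. Visual rating against controls after 13–15 days in greenhouse, scale 0 (no effect) to 100 (complete control).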

[2] = system: crabgrass, large (large crabgrass, Digitaria sanguinalis); assay: Test A pre-/postemergence: crabgrass, large; conditions: for Crabgrass, Large plant response rating: Postemergence; for Plant response rating, Crabgrass, Large: Preemergence
How it was run: (§2)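 Plants in loam–sand blend were treated with test chemicals in non-phytotoxic solvent with surfactant, either as preemergence directed soil spray or postemergence at 2–10 cm, one- to two-leaf stage. After about ten days in greenhouse, injury was rated visually against untreated controls on a 0–100 scale (100 = complete control).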

[3] = system: barnyardgrass (Echinochloa crus-galli); assay: Test A pre-/postemergence: barnyardgrass; conditions: for Barnyardgrass plant response rating: Postemergence; for Plant response rating, Barnyardgrass: Preemergence
How it was run: as §2

[4] = system: velvetleaf (Abutilon theophrasti); assay: Test A pre-/postemergence: velvetleaf; conditions: for Velvetleaf plant response rating: Postemergence; for Plant response rating, Velvetleaf: Preemergence
How it was run: as §2

[5] = system: morningglory (Ipomoea spp.); assay: Test A pre-/postemergence: morningglory; conditions: for Morningglory plant response rating: Postemergence; for Plant response rating, Morningglory: Preemergence
How it was run: as §2

[6] = system: ducksalad (Heteranthera limosa); assay: Test C flooded paddy test: ducksalad; conditions: scale 0 to 100 (0 no effect, 100 complete control)
How it was run: as §1

[7] = system: foxtail, giant (giant foxtail, Setaria faberii); assay: Test A pre-/postemergence: foxtail, giant; conditions: for Foxtail, Giant plant response rating: Postemergence; for Plant response rating, Foxtail, Giant: Preemergence
How it was run: as §2

corn (Zea mays) = assay: Test A pre-/postemergence: corn; conditions: for Corn plant response rating: Postemergence; for Plant response rating, Corn: Preemergence
How it was run: as §2

rice (Oryza sativa) = assay: Test C flooded paddy test: rice; conditions: scale 0 to 100 (0 no effect, 100 complete control)
How it was run: as §1

[8] = system: sedge, umbrella (small-flower umbrella sedge, Cyperus difformis); assay: Test C flooded paddy test: sedge, umbrella; conditions: scale 0 to 100 (0 no effect, 100 complete control)
How it was run: as §1

[9] = system: pigweed (Amaranthus retroflexus); assay: Test A pre-/postemergence: pigweed; conditions: for Pigweed plant response rating: Postemergence; for Plant response rating, Pigweed: Preemergence
How it was run: as §2

[10] = system: wheat (Triticum aestivum); assay: Test A pre-/postemergence: wheat; conditions: for Wheat plant response rating: Postemergence; for Plant response rating, Wheat: Preemergence
How it was run: as §2

[11] = Flood (flooded paddy test), 62 g ai/ha, visual rating after 13 to 15 days
[12] = Flood (flooded paddy test), 250 g ai/ha, visual rating after 13 to 15 days
[13] = 125 g ai/ha, 0 to 100 scale, 0 is no effect, 100 is complete control
[14] = 500 g ai/ha, visual rating on 0 to 100 scale (0 no effect, 100 complete control), approximately ten days
[15] = 125 g ai/ha, 0 to 100 scale (0 no effect, 100 complete control)
[16] = 500 g ai/ha, 0 to 100 scale, 0 is no effect, 100 is complete control
[17] = Flood (flooded paddy test), 125 g ai/ha, visual rating after 13 to 15 days

Cc1nn(-c2ccc(C(F)(F)F)cc2)nc1Oc1cncc(C(F)(F)F)c1 [Compound 37]
70: Crabgrass, Large plant response rating [2, 14] | Plant response rating, Ducksalad [6, 12] | Plant response rating, Pigweed [9, 15]
20: Crabgrass, Large plant response rating [2, 13] | Barnyardgrass plant response rating [3, 14] | Velvetleaf plant response rating [4, 13] | Morningglory plant response rating [5, 13] | Plant response rating, Morningglory [5, 16] | Corn plant response rating (corn (Zea mays); [14]) | Plant response rating, Rice (rice (Oryza sativa); [12])
30: Plant response rating, Barnyardgrass [3, 15] | Foxtail, Giant plant response rating [7, 13]
35: Plant response rating, Barnyardgrass [1, 12]
100: Plant response rating, Crabgrass, Large [2, 16] | Plant response rating, Foxtail, Giant [7, 16] | Pigweed plant response rating [9, 14] | Plant response rating, Pigweed [9, 16]
90: Plant response rating, Crabgrass, Large [2, 15] | Plant response rating, Barnyardgrass [3, 16] | Morningglory plant response rating [5, 14] | Plant response rating, Foxtail, Giant [7, 15]
0: Plant response rating, Velvetleaf [4, 15] | Plant response rating, Morningglory [5, 15] | Plant response rating, Ducksalad [6, 11] | Plant response rating, Corn (corn (Zea mays); [15]) | Plant response rating, Sedge, Umbrella [8, 11] | Plant response rating, Sedge, Umbrella [8, 12] | Wheat plant response rating [10, 13] | Plant response rating, Wheat [10, 15] | Plant response rating, Wheat [10, 16]
80: Foxtail, Giant plant response rating [7, 14] | Pigweed plant response rating [9, 13]
10: Plant response rating, Barnyardgrass [1, 11] | Barnyardgrass plant response rating [3, 13] | Plant response rating, Velvetleaf [4, 16] | Corn plant response rating (corn (Zea mays); [13]) | Plant response rating, Rice (rice (Oryza sativa); [11]) | Wheat plant response rating [10, 14]
50: Velvetleaf plant response rating [4, 14]

Cc1nn(-c2ccc(C(F)(F)F)cc2)nc1Oc1ccnc(OC(F)F)c1 [Compound 48]
0: Plant response rating, Barnyardgrass [3, 15] | Plant response rating, Velvetleaf [4, 15] | Plant response rating, Velvetleaf [4, 16] | Plant response rating, Morningglory [5, 15] | Plant response rating, Corn (corn (Zea mays); [15]) | Plant response rating, Corn (corn (Zea mays); [16]) | Plant response rating, Sedge, Umbrella [8, 11] | Plant response rating, Wheat [10, 15] | Plant response rating, Wheat [10, 16]
90: Crabgrass, Large plant response rating [2, 14] | Morningglory plant response rating [5, 14] | Plant response rating, Pigweed [9, 16]
45: Plant response rating, Sedge, Umbrella [8, 12]
100: Plant response rating, Crabgrass, Large [2, 16] | Plant response rating, Foxtail, Giant [7, 16] | Pigweed plant response rating [9, 13] | Pigweed plant response rating [9, 14]
70: Foxtail, Giant plant response rating [7, 14]
40: Plant response rating, Foxtail, Giant [7, 15] | Plant response rating, Pigweed [9, 15]
20: Plant response rating, Morningglory [5, 16] | Plant response rating, Ducksalad [6, 11] | Plant response rating, Rice (rice (Oryza sativa); [12]) | Wheat plant response rating [10, 14]
10: Plant response rating, Barnyardgrass [1, 11] | Barnyardgrass plant response rating [3, 13] | Morningglory plant response rating [5, 13] | Corn plant response rating (corn (Zea mays); [13]) | Plant response rating, Rice (rice (Oryza sativa); [11]) | Wheat plant response rating [10, 13]
30: Plant response rating, Barnyardgrass [1, 12] | Plant response rating, Crabgrass, Large [2, 15] | Barnyardgrass plant response rating [3, 14] | Plant response rating, Barnyardgrass [3, 16] | Velvetleaf plant response rating [4, 13] | Foxtail, Giant plant response rating [7, 13] | Corn plant response rating (corn (Zea mays); [14])
50: Crabgrass, Large plant response rating [2, 13] | Velvetleaf plant response rating [4, 14]
65: Plant response rating, Ducksalad [6, 12]

Cc1nn(-c2ccnc(C(F)(F)F)c2)nc1C(=O)c1cccc(C(F)(F)F)c1 [Compound 49]
80: Plant response rating, Crabgrass, Large [2, 15] | Plant response rating, Foxtail, Giant [7, 15] | Pigweed plant response rating [9, 13]
90: Crabgrass, Large plant response rating [2, 14]
15: Plant response rating, Barnyardgrass [1, 12]
75: Plant response rating, Sedge, Umbrella [8, 12]
70: Plant response rating, Sedge, Umbrella [8, 17]
60: Crabgrass, Large plant response rating [2, 13] | Velvetleaf plant response rating [4, 14] | Foxtail, Giant plant response rating [7, 14] | Plant response rating, Pigweed [9, 15]
20: Barnyardgrass plant response rating [3, 14] | Morningglory plant response rating [5, 13] | Corn plant response rating (corn (Zea mays); [14]) | Wheat plant response rating [10, 14] | Plant response rating, Wheat [10, 16]
0: Plant response rating, Barnyardgrass [1, 11] | Plant response rating, Barnyardgrass ([1]; Flood, 31 g ai/ha) | Plant response rating, Velvetleaf [4, 15] | Plant response rating, Morningglory [5, 15] | Plant response rating, Ducksalad [6, 11] | Plant response rating, Ducksalad ([6]; Flood, 31 g ai/ha) | Plant response rating, Corn (corn (Zea mays); [15]) | Plant response rating, Rice (rice (Oryza sativa); [11]) | Plant response rating, Rice (rice (Oryza sativa); [17]) | Plant response rating, Rice (rice (Oryza sativa); [12]) | Plant response rating, Rice (rice (Oryza sativa); Flood, 31 g ai/ha) | Plant response rating, Sedge, Umbrella [8, 11] | Plant response rating, Sedge, Umbrella ([8]; Flood, 31 g ai/ha)
50: Morningglory plant response rating [5, 14]
30: Plant response rating, Barnyardgrass [3, 16] | Velvetleaf plant response rating [4, 13] | Plant response rating, Ducksalad [6, 17] | Foxtail, Giant plant response rating [7, 13]
10: Plant response rating, Barnyardgrass [1, 17] | Barnyardgrass plant response rating [3, 13] | Plant response rating, Barnyardgrass [3, 15] | Plant response rating, Velvetleaf [4, 16] | Plant response rating, Morningglory [5, 16] | Corn plant response rating (corn (Zea mays); [13]) | Plant response rating, Corn (corn (Zea mays); [16]) | Wheat plant response rating [10, 13] | Plant response rating, Wheat [10, 15]
40: Plant response rating, Ducksalad [6, 12]
100: Plant response rating, Crabgrass, Large [2, 16] | Plant response rating, Foxtail, Giant [7, 16] | Pigweed plant response rating [9, 14] | Plant response rating, Pigweed [9, 16]

Cc1nn(-c2nc(Cl)ns2)nc1C(=O)c1cccc(C(F)(F)F)c1 [Compound 59]
0: Plant response rating, Barnyardgrass [1, 11] | Plant response rating, Barnyardgrass [1, 17] | Plant response rating, Barnyardgrass [1, 12] | Plant response rating, Barnyardgrass ([1]; Flood, 31 g ai/ha) | Crabgrass, Large plant response rating [2, 13] | Crabgrass, Large plant response rating [2, 14] | Plant response rating, Crabgrass, Large [2, 15] | Plant response rating, Crabgrass, Large [2, 16] | Barnyardgrass plant response rating [3, 13] | Barnyardgrass plant response rating [3, 14] | Plant response rating, Barnyardgrass [3, 15] | Plant response rating, Barnyardgrass [3, 16] | Velvetleaf plant response rating [4, 13] | Velvetleaf plant response rating [4, 14] | Plant response rating, Velvetleaf [4, 15] | Plant response rating, Velvetleaf [4, 16] | Morningglory plant response rating [5, 13] | Morningglory plant response rating [5, 14] | Plant response rating, Morningglory [5, 15] | Plant response rating, Morningglory [5, 16] | Plant response rating, Ducksalad [6, 11] | Plant response rating, Ducksalad [6, 17] | Plant response rating, Ducksalad [6, 12] | Plant response rating, Ducksalad ([6]; Flood, 31 g ai/ha) | Foxtail, Giant plant response rating [7, 13] | Foxtail, Giant plant response rating [7, 14] | Plant response rating, Foxtail, Giant [7, 15] | Plant response rating, Foxtail, Giant [7, 16] | Corn plant response rating (corn (Zea mays); [13]) | Corn plant response rating (corn (Zea mays); [14]) | Plant response rating, Corn (corn (Zea mays); [15]) | Plant response rating, Corn (corn (Zea mays); [16]) | Plant response rating, Rice (rice (Oryza sativa); [11]) | Plant response rating, Rice (rice (Oryza sativa); [17]) | Plant response rating, Rice (rice (Oryza sativa); [12]) | Plant response rating, Rice (rice (Oryza sativa); Flood, 31 g ai/ha) | Plant response rating, Sedge, Umbrella [8, 11] | Plant response rating, Sedge, Umbrella [8, 17] | Plant response rating, Sedge, Umbrella [8, 12] | Plant response rating, Sedge, Umbrella ([8]; Flood, 31 g ai/ha) | Pigweed plant response rating [9, 13] | Pigweed plant response rating [9, 14] | Plant response rating, Pigweed [9, 15] | Plant response rating, Pigweed [9, 16] | Wheat plant response rating [10, 13] | Wheat plant response rating [10, 14] | Plant response rating, Wheat [10, 15] | Plant response rating, Wheat [10, 16]
